Assay: general statement on activity and toxicity of carnitine stereoisomers and acyl-carnitine

## C[N+](C)(C)C[C@@H](O)CC(=O)[O-] [D-carnitine]
D-isomer versus other isomer
  toxicity of carnitine isomer: slightly more toxic

## C[N+](C)(C)C[C@H](O)CC(=O)[O-] [L-carnitine]
L-isomer versus other isomer
  activity of carnitine isomer: more active
